Earlier results on one compound are cited in patent publication US11485742B2, “2-azaspiro[3.4]octane derivatives as M4 agonists” (NOVARTIS AG, priority 2019, dated 2022).

The subject of this series is hyperactivity in mice induced by the stimulant d-amphetamine. The settings on record: general statement on clinically efficacious muscarinic anti-psychotics; cited from earlier work.

Regarding `CCCCCCOc1nsnc1C1=CCCN(C)C1` [xanomeline], the “activity in the amphetamine induced hyperlocomotion assay” value is reported as “active”.
